For orientation: IC50 means the concentration needed to halve the response being measured. High values mean a need for much substance, low ones inhibition by little substance.

Data on twelve molecules can be found in ChEMBL document CHEMBL1240493, “Homology modeling and atomic level binding study of GABA(A) receptor with novel enaminone amides” (Eur J Med Chem, 2010).

In the experiment the target is GABA-A receptor; alpha-1/beta-2/gamma-2 (Rattus norvegicus, UniProt P18508+P62813+P63138). In words: Inhibition of rat GABA alpha-1-beta-2-gamma-2 receptor. The format is protein-complex assay.
Sequence of GABA-A receptor; alpha-1/beta-2/gamma-2 (P18508 whole entry): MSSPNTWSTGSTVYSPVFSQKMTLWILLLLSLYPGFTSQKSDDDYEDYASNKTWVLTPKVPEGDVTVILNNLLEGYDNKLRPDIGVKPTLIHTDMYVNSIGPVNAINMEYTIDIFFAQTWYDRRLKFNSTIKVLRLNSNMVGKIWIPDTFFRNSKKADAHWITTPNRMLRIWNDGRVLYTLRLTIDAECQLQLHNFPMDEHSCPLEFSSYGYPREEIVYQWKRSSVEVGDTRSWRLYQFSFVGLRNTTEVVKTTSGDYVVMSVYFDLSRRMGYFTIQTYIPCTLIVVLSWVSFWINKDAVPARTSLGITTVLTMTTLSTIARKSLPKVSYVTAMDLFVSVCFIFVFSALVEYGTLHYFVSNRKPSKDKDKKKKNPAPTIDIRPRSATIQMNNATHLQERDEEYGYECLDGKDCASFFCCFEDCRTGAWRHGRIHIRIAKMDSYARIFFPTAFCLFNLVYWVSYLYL
Sequence of GABA-A receptor; alpha-1/beta-2/gamma-2 (P62813 whole entry): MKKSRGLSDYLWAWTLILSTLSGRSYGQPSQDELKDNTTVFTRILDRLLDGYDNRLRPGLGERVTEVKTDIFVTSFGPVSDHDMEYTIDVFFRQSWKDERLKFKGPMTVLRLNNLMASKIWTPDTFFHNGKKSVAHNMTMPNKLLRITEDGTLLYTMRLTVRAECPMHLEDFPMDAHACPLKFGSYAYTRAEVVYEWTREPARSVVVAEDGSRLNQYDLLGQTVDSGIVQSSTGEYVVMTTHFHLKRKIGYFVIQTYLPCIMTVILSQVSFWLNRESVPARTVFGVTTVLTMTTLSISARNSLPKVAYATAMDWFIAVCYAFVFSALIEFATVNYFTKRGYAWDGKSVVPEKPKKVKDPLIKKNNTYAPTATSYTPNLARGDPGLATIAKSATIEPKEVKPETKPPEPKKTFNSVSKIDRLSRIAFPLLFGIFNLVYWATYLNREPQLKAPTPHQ
Sequence of GABA-A receptor; alpha-1/beta-2/gamma-2 (P63138 whole entry): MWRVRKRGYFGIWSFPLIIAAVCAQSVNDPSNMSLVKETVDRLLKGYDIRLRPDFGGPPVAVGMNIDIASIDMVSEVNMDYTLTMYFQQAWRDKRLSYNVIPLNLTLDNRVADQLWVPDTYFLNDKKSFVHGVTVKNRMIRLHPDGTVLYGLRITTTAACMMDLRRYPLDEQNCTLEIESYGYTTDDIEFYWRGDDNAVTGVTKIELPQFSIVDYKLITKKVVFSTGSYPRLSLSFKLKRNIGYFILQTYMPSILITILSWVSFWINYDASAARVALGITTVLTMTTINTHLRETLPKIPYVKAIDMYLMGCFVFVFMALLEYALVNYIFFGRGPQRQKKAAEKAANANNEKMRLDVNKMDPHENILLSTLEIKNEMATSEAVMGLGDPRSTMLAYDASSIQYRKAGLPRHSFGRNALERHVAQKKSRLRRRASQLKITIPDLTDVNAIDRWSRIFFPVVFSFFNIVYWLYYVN
`CCNC(=O)/C(=C\Nc1ccc(Cl)cc1)C(=O)c1ccccc1Cl` showed a half-inhibitory concentration (IC50) of 50.1 nM. Turning to `CNC(=O)/C(=C\Nc1ccc(Cl)cc1)C(=O)c1ccccc1Cl`, the IC50 was 158 nM. Next, `NC(=O)/C(=C\Nc1ccc(Cl)cc1)C(=O)c1ccccc1Cl`: 1700 nM. `O=C(NC1CC1)/C(=C\Nc1ccc(Cl)cc1)C(=O)c1ccccc1Cl` showed a concentration for half-maximal inhibition (IC50) of 30.2 nM.

For `CC(C)C(C)NC(=O)/C(=C\Nc1ccc(Cl)cc1)C(=O)c1ccccc1Cl` (configuration not stated), the midpoint of inhibition, the IC50, lay at 398 nM. With `CCC(C)NC(=O)/C(=C\Nc1ccc(Cl)cc1)C(=O)c1ccccc1Cl` (configuration not stated), the IC50 is 20 nM.

`CCC(CC)NC(=O)/C(=C\Nc1ccc(Cl)cc1)C(=O)c1ccccc1Cl` showed an IC50 of 79.4 nM. With `O=C(NC1CCCC1)/C(=C\Nc1ccc(Cl)cc1)C(=O)c1ccccc1Cl` the figure was 30.2 nM; with `O=C(NC1CCC1)/C(=C\Nc1ccc(Cl)cc1)C(=O)c1ccccc1Cl`, 7.08 nM; with `CC(C)(C)NC(=O)/C(=C\Nc1ccc(Cl)cc1)C(=O)c1ccccc1Cl`, 3020 nM. For `CC(C)NC(=O)/C(=C\Nc1ccc(Cl)cc1)C(=O)c1ccccc1Cl`, 39.8 nM corresponded to half-maximal inhibition (IC50). Next, `CCCNC(=O)/C(=C\Nc1ccc(Cl)cc1)C(=O)c1ccccc1Cl`: 44.7 nM.
